Data from patent publication US7169612B2, “Use of EDG2 receptor in an animal model of heart failure” (Sanofi-Aventis Deutschland GmbH, priority 2002, dated 2007).

How the values were obtained:
[1] = system: EDG2-overexpressing cardiomyocytes; experiment: Shortening measurements (contractility) in single isolated cardiomyocytes after Ad-EDG2-GFP gene transfer; type: cell-based, rabbit
Description: (§1) Contractility of infected cardiomyocytes was measured by an electro-optical monitoring system connected to online digitalized assessment of amplitude and velocity of shortening and of relaxation. Transgene-positive cardiomyocytes were identified by co-expression of GFP under fluorescent light. After the contraction amplitude reached stability, increasing concentrations of isoproterenol were applied at constant concentrations of lysophosphatidic acid (LPA; 10^−5 mol/l); or increasing LPA concentrations were added to constant concentrations of isoproterenol (10^−8 mol/l).
(§2) In order to investigate the effects of EDG2 on cardiomyocyte contractility, fractional shortening and velocity of shortening in single, isolated cardiomyocytes from failing hearts after ex vivo gene transfer was measured.
(§3) Single calcium-tolerant ventricular cardiomyocytes were isolated from failing White New Zealand rabbit hearts. Briefly, the hearts were perfused and digested with collagenase. The isolated cardiomyocytes were cultured in modified M199 on laminin-precoated dishes (5–10 μg/cm^2) at a density of 1.5×10^5 cells per cm^2 (at 5% CO2 and 37° C.). For contraction experiments, the cells were infected with adenovirus (multiplicity of infection (moi) 1 pfu/cell) 5 hours after plating. 50–60% of the infected cardiomyocytes expressed the transgene at this titer.

[2] = system: control GFP cardiomyocytes; experiment: Shortening measurements (contractility) in single isolated cardiomyocytes after Ad-GFP gene transfer (control); type: cell-based, rabbit; settings: increasing concentrations of LPA after prestimulation with isoproterenol 10^-8 mol/l; control GFP group; FIG. 2
Description: as §1, §2, §3

human EDG2 = target: T1, human EDG2 (Homo sapiens, UniProt Q92633); settings: HEK293 cells expressing the human EDG2 protein; LPA concentration dependent; cited from earlier work
T1 construct: host or cells: HEK293 cells expressing human EDG2
T1 sequence (Q92633 whole entry): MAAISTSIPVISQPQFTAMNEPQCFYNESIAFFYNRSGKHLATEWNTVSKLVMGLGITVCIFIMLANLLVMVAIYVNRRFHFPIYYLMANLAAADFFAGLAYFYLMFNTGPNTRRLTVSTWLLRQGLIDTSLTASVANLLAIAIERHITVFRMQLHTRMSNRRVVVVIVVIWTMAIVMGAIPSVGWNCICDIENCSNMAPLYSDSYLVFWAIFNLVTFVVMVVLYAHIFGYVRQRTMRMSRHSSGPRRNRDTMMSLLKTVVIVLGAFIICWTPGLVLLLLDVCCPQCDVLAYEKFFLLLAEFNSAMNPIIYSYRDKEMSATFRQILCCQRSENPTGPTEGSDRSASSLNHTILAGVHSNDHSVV

In the case of CC(C)NCC(O)c1ccc(O)c(O)c1 (stereo not drawn) [isoproterenol], the “inotropic effect (fractional shortening)” value ([1]; increasing concentrations of isoproterenol at constant LPA 10^-5 mol/l, EDG2-overexpressing versus control, FIG. 1) was “significantly lower positively inotropic effect”.
For lysophosphatidic acid [LPA], the “inotropic effect (fractional shortening)” value [2] was “no effect”, the “effect on basal contractility of cardiomyocytes” value ([1]; LPA 10^-5 mol/l, isolated cardiomyocytes from failing hearts) was “does not alter basal contractility” and the “effect on contractility of cardiomyocytes” value ([1]; absence of prestimulation with isoproterenol) was “no effect on the contractility”. The “inotropic effect (fractional shortening)” value ([1]; increasing concentrations of LPA after prestimulation with isoproterenol 10^-8 mol/l, FIG. 2) was “significant negatively inotropic effect” and the “response in serum response element reporter gene assay” value (human EDG2) was “elevated response”.
